{"source": "patent US20130190278A1", "about": "“Compounds for the Treatment/Prevention of Ocular Inflammatory Diseases” (Laboratoires Fournier SA, priority 2010, published 2013)", "test_system": "dry eye induced by scopolamine and extractor hood", "test": "Dry eye model (scopolamine + desiccation), tear production by Phenol Red test (PRTT)", "format": "in vivo, mice", "details": "instillations of 0.1% twice a day", "method": "Dry eye is induced in mice by the combination of scopolamine, which blocks the muscarinic cholinergic receptors of lacrimal glands, and by placing the mice in an extractor hood that reduces humidity and increases air flow. The production and volume of aqueous tears, tear clearance, and the corneal barrier function are evaluated before treatment, and then twice a week after treatment. The results are compared between groups of untreated control mice, and groups of mice placed in the extractor hood, treated with the anticholinergic agent scopolamine, treated or not with tresperimus.\nMale 129SV/CD-1 mice were used in this study and received three sub-cutaneous injections of 200 μl of scopolamine at 2.5 mg/mL in saline for 21 days. The mice were placed in an extractor hood (humidity <50%) during the whole experiment.\nTear production (PRTT) was measured with cotton threads impregnated with Phenol Red (Zone-quick; Menicon, Japan) applied to the ocular surface in the lateral canthus for 60 seconds. Wetting of the thread was measured in millimeters, using the scale on the cotton thread.", "data": [{"smiles": "C[C@@H]1C[C@H]2[C@@H]3CCC4=CC(=O)C=C[C@]4(C)[C@@]3(F)[C@@H](O)C[C@]2(C)[C@@]1(O)C(=O)CO", "note": "[dexamethasone]", "values": [{"measurement": "Tear volume (Phenol Red test)", "value": "no significant effect"}]}]}
